Measurements: ChEMBL document CHEMBL3091428, “Synthesis and initial biological evaluation of substituted 1-phenylamino-2-thio-4,5-dimethyl-1H-imidazole derivatives” (Bioorg Med Chem Lett, 2013)
≈ marks a conversion by molar mass, not a printed value.

Tests used:
Pseudomonas aeruginosa = assay: Antimicrobial activity against Pseudomonas aeruginosa ATCC 27853 after 24 hrs by broth microdilution method; type: functional; conditions: ATCC 27853, 24 h
Candida albicans = assay: Antimicrobial activity against Candida albicans ATCC 90028 after 24 hrs by broth microdilution method; type: functional; conditions: ATCC 90028, 24 h
Artemia salina [1] = assay: Toxicity in brine shrimp larvae assessed as mortality at 100 ug/ml after 24 hrs; type: organism-based; conditions: in vivo
[2] = Toxicity in brine shrimp larvae assessed as mortality after 24 hrs; type: organism-based; conditions: artemia salina, in vivo
Pichia kudriavzevii = assay: Antimicrobial activity against Candida krusei ATCC 6258 after 24 hrs by broth microdilution method; type: functional; conditions: ATCC 6258, 24 h
Artemia salina [3] = assay: Toxicity in brine shrimp larvae assessed as mortality at 200 ug/ml after 24 hrs; type: organism-based; conditions: in vivo
Escherichia coli [4] = assay: Antimicrobial activity against Escherichia coli ATCC 35218 after 24 hrs by broth microdilution method; type: functional; conditions: ATCC 35218, 24 h
Escherichia coli [5] = assay: Antimicrobial activity against Escherichia coli ATCC 25922 after 24 hrs by broth microdilution method; type: functional; conditions: ATCC 25922, 24 h
Nakaseomyces glabratus = assay: Antimicrobial activity against Candida glabrata ATCC 90030 after 24 hrs by broth microdilution method; type: functional; conditions: ATCC 90030, 24 h
Listeria monocytogenes = assay: Antimicrobial activity against Listeria monocytogenes ATCC 19115 after 24 hrs by broth microdilution method; type: functional; conditions: ATCC 19115, 24 h
Staphylococcus aureus = assay: Antimicrobial activity against Staphylococcus aureus ATCC 25923 after 24 hrs by broth microdilution method; type: functional; conditions: ATCC 25923, 24 h
Enterococcus faecalis [6] = assay: Antimicrobial activity against Enterococcus faecalis ATCC 29212 after 24 hrs by broth microdilution method; type: functional; conditions: ATCC 29212, 24 h
Klebsiella pneumoniae = assay: Antimicrobial activity against Klebsiella pneumoniae ATCC 13883 after 24 hrs by broth microdilution method; type: functional; conditions: ATCC 13883, 24 h
Artemia salina [7] = assay: Toxicity in brine shrimp larvae assessed as mortality at 50 ug/ml after 24 hrs; type: organism-based; conditions: in vivo
Enterococcus faecalis [8] = assay: Antimicrobial activity against Enterococcus faecalis ATCC 51299 after 24 hrs by broth microdilution method; type: functional; conditions: ATCC 51299, 24 h
Artemia salina [9] = assay: Toxicity in brine shrimp larvae assessed as mortality at 400 ug/ml after 24 hrs; type: organism-based; conditions: in vivo
Artemia salina [10] = assay: Toxicity in brine shrimp larvae assessed as mortality at 800 ug/ml after 24 hrs; type: organism-based; conditions: in vivo
Artemia salina [11] = assay: Toxicity in brine shrimp larvae assessed as mortality at 1600 ug/ml after 24 hrs; type: organism-based; conditions: in vivo

SMILES | MIC (Pseudomonas aeruginosa) [µg/mL] | MIC (Candida albicans) [µg/mL] | MIC (Pichia kudriavzevii) [µg/mL] | MIC (Escherichia coli [4]) [µg/mL] | MIC (Escherichia coli [5]) [µg/mL] | MIC (Nakaseomyces glabratus) [µg/mL] | MIC (Listeria monocytogenes) [µg/mL] | MIC (Staphylococcus aureus) [µg/mL] | MIC (Enterococcus faecalis [6]) [µg/mL] | MIC (Klebsiella pneumoniae) [µg/mL] | MIC (Enterococcus faecalis [8]) [µg/mL] | Activity (Artemia salina [1]) | LC50 at 24 h [2] [µg/mL] | Activity (Artemia salina [3]) | Activity (Artemia salina [7]) | Activity (Artemia salina [9]) | Activity (Artemia salina [10]) | Activity (Artemia salina [11])
COc1ccc(C(=O)CSc2nc(C)c(C)n2Nc2ccc(C)cc2)cc1OC | 400 (≈ 972 µM) | 100 (≈ 243 µM) | 50 (≈ 121 µM) | 200 (≈ 486 µM) | 200 (≈ 486 µM) | 100 (≈ 243 µM) | 50 (≈ 121 µM) | 400 (≈ 972 µM) | 100 (≈ 243 µM) | 400 (≈ 972 µM) | 400 (≈ 972 µM) | Non-toxic | 1310 (≈ 3180 µM) | Non-toxic | Non-toxic |  |  | 
COc1ccc(C(=O)CSc2nc(C)c(C)n2Nc2ccc(C)cc2)cc1 | 400 (≈ 1050 µM) | 25 (≈ 65.5 µM) | 25 (≈ 65.5 µM) | 400 (≈ 1050 µM) | 100 (≈ 262 µM) | 100 (≈ 262 µM) | 50 (≈ 131 µM) | 400 (≈ 1050 µM) | 25 (≈ 65.5 µM) | 400 (≈ 1050 µM) | 400 (≈ 1050 µM) |  | 153 (≈ 400 µM) |  |  | Toxic | Toxic | Toxic
Cc1nc(SCC(=O)c2ccc(F)c(F)c2)n(Nc2ccc(Cl)cc2)c1C | 400 (≈ 981 µM) | 50 (≈ 123 µM) | 100 (≈ 245 µM) | 800 (≈ 1960 µM) | 400 (≈ 981 µM) | 100 (≈ 245 µM) | 50 (≈ 123 µM) | 400 (≈ 981 µM) | 50 (≈ 123 µM) | 400 (≈ 981 µM) | 400 (≈ 981 µM) | Non-toxic | 359 (≈ 881 µM) |  | Non-toxic |  | Toxic | Toxic
Cc1nc(SCC(=O)c2ccc(F)c(F)c2)n(Nc2ccccc2)c1C | 400 (≈ 1070 µM) | 400 (≈ 1070 µM) | 200 (≈ 536 µM) | 400 (≈ 1070 µM) | 400 (≈ 1070 µM) | 400 (≈ 1070 µM) | 50 (≈ 134 µM) | 100 (≈ 268 µM) | 25 (≈ 66.9 µM) | 400 (≈ 1070 µM) | 400 (≈ 1070 µM) |  | 465 (≈ 1250 µM) |  |  |  |  | 
Cc1nc(SCC(=O)c2ccc(Cl)c(Cl)c2)n(Nc2ccc(Cl)cc2)c1C | 400 (≈ 907 µM) | 800 (≈ 1810 µM) | 400 (≈ 907 µM) | 200 (≈ 454 µM) | 800 (≈ 1810 µM) | 400 (≈ 907 µM) | 200 (≈ 454 µM) | 800 (≈ 1810 µM) | 50 (≈ 113 µM) | 800 (≈ 1810 µM) | 800 (≈ 1810 µM) |  |  |  |  |  |  | 
COc1ccc(Nn2c(SCC(=O)c3ccc(F)c(F)c3)nc(C)c2C)cc1 | 800 (≈ 1980 µM) | 400 (≈ 991 µM) | 400 (≈ 991 µM) | 800 (≈ 1980 µM) | 800 (≈ 1980 µM) | 800 (≈ 1980 µM) | 800 (≈ 1980 µM) | 800 (≈ 1980 µM) | 1600 (≈ 3970 µM) | 800 (≈ 1980 µM) | 800 (≈ 1980 µM) |  |  |  |  |  |  | 
COc1ccc(C(=O)CSc2nc(C)c(C)n2Nc2ccc(OO)cc2)cc1 | 800 (≈ 2000 µM) | 400 (≈ 1000 µM) | 400 (≈ 1000 µM) | 800 (≈ 2000 µM) | 800 (≈ 2000 µM) | 800 (≈ 2000 µM) | 800 (≈ 2000 µM) | 800 (≈ 2000 µM) | 800 (≈ 2000 µM) | 800 (≈ 2000 µM) | 800 (≈ 2000 µM) |  |  |  |  |  |  | 

Now from value to molecule, other results behind:

MIC (Pseudomonas aeruginosa) [µg/mL] | MIC (Candida albicans) [µg/mL] | MIC (Pichia kudriavzevii) [µg/mL] | MIC (Escherichia coli [4]) [µg/mL] | MIC (Escherichia coli [5]) [µg/mL] | MIC (Nakaseomyces glabratus) [µg/mL] | MIC (Listeria monocytogenes) [µg/mL] | MIC (Staphylococcus aureus) [µg/mL] | MIC (Enterococcus faecalis [6]) [µg/mL] | MIC (Klebsiella pneumoniae) [µg/mL] | MIC (Enterococcus faecalis [8]) [µg/mL] | SMILES | Activity (Artemia salina [1]) | LC50 at 24 h [2] [µg/mL] | Activity (Artemia salina [3]) | Activity (Artemia salina [7]) | Activity (Artemia salina [9]) | Activity (Artemia salina [10]) | Activity (Artemia salina [11])
800 (≈ 1990 µM) | 800 (≈ 1990 µM) | 200 (≈ 498 µM) | 800 (≈ 1990 µM) | 800 (≈ 1990 µM) | 800 (≈ 1990 µM) | 1600 (≈ 3980 µM) | 400 (≈ 995 µM) | 200 (≈ 498 µM) | 400 (≈ 995 µM) | 400 (≈ 995 µM) | COc1ccc(C(=O)CSc2nc(C)c(C)n2Nc2ccc(Cl)cc2)cc1 |  |  |  |  |  |  | 
400 (≈ 926 µM) | 400 (≈ 926 µM) | 400 (≈ 926 µM) | 800 (≈ 1850 µM) | 400 (≈ 926 µM) | 400 (≈ 926 µM) | 100 (≈ 232 µM) | 800 (≈ 1850 µM) | 100 (≈ 232 µM) | 800 (≈ 1850 µM) | 800 (≈ 1850 µM) | COc1ccc(C(=O)CSc2nc(C)c(C)n2Nc2ccc(Cl)cc2)cc1OC |  |  |  |  |  |  | 
800 (≈ 1900 µM) | 800 (≈ 1900 µM) | 800 (≈ 1900 µM) | 800 (≈ 1900 µM) | 400 (≈ 952 µM) | 800 (≈ 1900 µM) | 800 (≈ 1900 µM) | 800 (≈ 1900 µM) | 400 (≈ 952 µM) | 800 (≈ 1900 µM) | 400 (≈ 952 µM) | Cc1ccc(Nn2c(SCC(=O)c3ccc(Cl)c(Cl)c3)nc(C)c2C)cc1 |  |  |  |  |  |  | 
400 (≈ 1080 µM) | 800 (≈ 2150 µM) | 200 (≈ 538 µM) | 400 (≈ 1080 µM) | 400 (≈ 1080 µM) | 400 (≈ 1080 µM) | 400 (≈ 1080 µM) | 400 (≈ 1080 µM) | 400 (≈ 1080 µM) | 800 (≈ 2150 µM) | 400 (≈ 1080 µM) | Cc1nc(SCC(=O)c2cccc(Cl)c2)n(Nc2ccccc2)c1C |  |  |  |  |  |  | 
